# Source: the OligoGym collection
# HELM strings list units from the 5' end as sugar, base in round brackets, then linkage (d deoxyribose, r ribose, m 2'-O-methyl, p phosphodiester). Strings are as the collection lists them; they lack the last nucleoside at the 3' end of the tested compound. [moe] = 2'-O-(2-methoxyethyl) (MOE); [sp] = phosphorothioate linkage; [m5C] = 5-methylcytosine
# Target: C9ORF72
# Experiment: mouse, dose not given
# Conditions: ASO
row,Substance,3 h FOB score [score 0-7]
1,RNA1{[moe]([m5C])[sp].[moe](T)p.[moe](G)p.[moe](G)p.[moe](T)p.[moe](T)p.d(A)[sp].d(A)[sp].d(T)[sp].d([m5C])[sp].d(T)[sp].d(T)[sp].d(T)[sp].d(A)[sp].d(T)[sp].d([m5C])[sp].[moe](A)p.[moe](G)[sp].[moe](G)}$$$$ (last 3' nucleoside missing),0
2,RNA1{[moe]([m5C])[sp].[moe](T)p.[moe](G)p.[moe](G)p.d(T)[sp].d(T)[sp].d(A)[sp].d(A)[sp].d(T)[sp].d([m5C])[sp].d(T)[sp].d(T)[sp].d(T)[sp].d(A)[sp].[moe](T)p.[moe]([m5C])p.[moe](A)p.[moe](G)[sp].[moe](G)}$$$$ (last 3' nucleoside missing),0
3,RNA1{[moe]([m5C])[sp].[moe](T)p.[moe](G)p.[moe]([m5C])p.[moe](G)p.[moe](A)p.[moe](T)p.d([m5C])[sp].d([m5C])[sp].d([m5C])[sp].d([m5C])[sp].d(A)[sp].d(T)[sp].d(T)[sp].d([m5C])[sp].d([m5C])[sp].d(A)[sp].[moe](G)[sp].[moe](T)}$$$$ (last 3' nucleoside missing),0.25
4,RNA1{[moe]([m5C])[sp].[moe](T)p.[moe](G)p.[moe]([m5C])p.[moe](G)p.[moe](A)p.d(T)[sp].d([m5C])[sp].d([m5C])[sp].d([m5C])[sp].d([m5C])[sp].d(A)[sp].d(T)[sp].d(T)[sp].d([m5C])[sp].d([m5C])[sp].[moe](A)p.[moe](G)[sp].[moe](T)}$$$$ (last 3' nucleoside missing),0.25
5,RNA1{[moe]([m5C])[sp].[moe](T)p.[moe](G)p.[moe]([m5C])p.d(G)[sp].d(A)[sp].d(T)[sp].d([m5C])[sp].d([m5C])[sp].d([m5C])[sp].d([m5C])[sp].d(A)[sp].d(T)[sp].d(T)[sp].[moe]([m5C])p.[moe]([m5C])p.[moe](A)p.[moe](G)[sp].[moe](T)}$$$$ (last 3' nucleoside missing),1.75
6,RNA1{[moe]([m5C])[sp].[moe](T)p.[moe](G)p.d(G)[sp].d(T)[sp].d(T)[sp].d(A)[sp].d(A)[sp].d(T)[sp].d([m5C])[sp].d(T)[sp].d(T)[sp].d(T)[sp].[moe](A)p.[moe](T)p.[moe]([m5C])p.[moe](A)p.[moe](G)[sp].[moe](G)}$$$$ (last 3' nucleoside missing),0
7,RNA1{[moe]([m5C])[sp].[moe](T)p.[moe](G)p.d([m5C])[sp].d(G)[sp].d(A)[sp].d(T)[sp].d([m5C])[sp].d([m5C])[sp].d([m5C])[sp].d([m5C])[sp].d(A)[sp].d(T)[sp].[moe](T)p.[moe]([m5C])p.[moe]([m5C])p.[moe](A)p.[moe](G)[sp].[moe](T)}$$$$ (last 3' nucleoside missing),1.75
8,RNA1{[moe]([m5C])[sp].[moe]([m5C])[sp].[moe]([m5C])[sp].[moe](G)[sp].[moe](G)[sp].d([m5C])[sp].d([m5C])[sp].d([m5C])[sp].d([m5C])[sp].d(T)[sp].d(A)[sp].d(G)[sp].d([m5C])[sp].d(G)[sp].d([m5C])[sp].[moe](G)[sp].[moe]([m5C])[sp].[moe](G)[sp].[moe](A)}$$$$ (last 3' nucleoside missing),6
9,RNA1{[moe]([m5C])[sp].[moe]([m5C])p.[moe](G)p.[moe](G)p.[moe]([m5C])p.[moe]([m5C])p.[moe]([m5C])p.d([m5C])[sp].d(T)[sp].d(A)[sp].d(G)[sp].d([m5C])[sp].d(G)[sp].d([m5C])[sp].d(G)[sp].d([m5C])[sp].d(G)[sp].[moe](A)[sp].[moe]([m5C])}$$$$ (last 3' nucleoside missing),2
10,RNA1{[moe]([m5C])[sp].[moe]([m5C])p.[moe](G)p.[moe](G)p.[moe]([m5C])p.[moe]([m5C])p.d([m5C])[sp].d([m5C])[sp].d(T)[sp].d(A)[sp].d(G)[sp].d([m5C])[sp].d(G)[sp].d([m5C])[sp].d(G)[sp].[moe]([m5C])p.[moe](G)[sp].[moe](A)}$$$$ (last 3' nucleoside missing),5.75
11,RNA1{[moe]([m5C])[sp].[moe]([m5C])p.[moe](G)p.[moe](G)p.[moe]([m5C])p.[moe]([m5C])p.d([m5C])[sp].d([m5C])[sp].d(T)[sp].d(A)[sp].d(G)[sp].d([m5C])[sp].d(G)[sp].d([m5C])[sp].d(G)[sp].d([m5C])[sp].[moe](G)p.[moe](A)[sp].[moe]([m5C])}$$$$ (last 3' nucleoside missing),3.5
12,RNA1{[moe]([m5C])[sp].[moe]([m5C])p.[moe](G)p.[moe](G)p.[moe]([m5C])p.d([m5C])[sp].d([m5C])[sp].d([m5C])[sp].d(T)[sp].d(A)[sp].d(G)[sp].d([m5C])[sp].d(G)[sp].d([m5C])[sp].[moe](G)p.[moe]([m5C])p.[moe](G)[sp].[moe](A)}$$$$ (last 3' nucleoside missing),4.5
13,RNA1{[moe]([m5C])[sp].[moe]([m5C])p.[moe](G)p.[moe](G)p.d([m5C])[sp].d([m5C])[sp].d([m5C])[sp].d([m5C])[sp].d(T)[sp].d(A)[sp].d(G)[sp].d([m5C])[sp].d(G)[sp].[moe]([m5C])p.[moe](G)p.[moe]([m5C])p.[moe](G)[sp].[moe](A)}$$$$ (last 3' nucleoside missing),6
14,RNA1{[moe]([m5C])[sp].[moe]([m5C])p.[moe](G)p.[moe](G)p.d([m5C])[sp].d([m5C])[sp].d([m5C])[sp].d([m5C])[sp].d(T)[sp].d(A)[sp].d(G)[sp].d([m5C])[sp].d(G)[sp].d([m5C])[sp].[moe](G)p.[moe]([m5C])p.[moe](G)p.[moe](A)[sp].[moe]([m5C])}$$$$ (last 3' nucleoside missing),4.25
15,RNA1{[moe]([m5C])[sp].[moe]([m5C])p.[moe](G)p.d(G)[sp].d([m5C])[sp].d([m5C])[sp].d([m5C])[sp].d([m5C])[sp].d(T)[sp].d(A)[sp].d(G)[sp].d([m5C])[sp].d(G)[sp].[moe]([m5C])p.[moe](G)p.[moe]([m5C])p.[moe](G)p.[moe](A)[sp].[moe]([m5C])}$$$$ (last 3' nucleoside missing),3.25
16,RNA1{[moe]([m5C])[sp].[moe]([m5C])p.[moe](T)p.[moe](A)[sp].d(G)[sp].d([m5C])[sp].d(G)[sp].d([m5C])[sp].d(G)[sp].d([m5C])[sp].d(G)[sp].d(A)[sp].[moe]([m5C])p.[moe](T)p.[moe]([m5C])p.[moe]([m5C])[sp].[moe](T)}$$$$ (last 3' nucleoside missing),3
17,RNA1{[moe]([m5C])[sp].[moe]([m5C])p.[moe](T)p.[moe](A)p.[moe](G)p.[moe]([m5C])[sp].d(G)[sp].d([m5C])[sp].d(G)[sp].d([m5C])[sp].d(G)[sp].d(A)[sp].d([m5C])[sp].d(T)[sp].[moe]([m5C])p.[moe]([m5C])[sp].[moe](T)}$$$$ (last 3' nucleoside missing),6
18,RNA1{[moe]([m5C])[sp].[moe]([m5C])p.[moe]([m5C])p.[moe](T)[sp].d(A)[sp].d(G)[sp].d([m5C])[sp].d(G)[sp].d([m5C])[sp].d(G)[sp].d([m5C])[sp].d(G)[sp].[moe](A)p.[moe]([m5C])p.[moe](T)p.[moe]([m5C])[sp].[moe]([m5C])}$$$$ (last 3' nucleoside missing),1
19,RNA1{[moe]([m5C])[sp].[moe]([m5C])p.[moe]([m5C])p.[moe](T)p.[moe](A)p.[moe](G)[sp].d([m5C])[sp].d(G)[sp].d([m5C])[sp].d(G)[sp].d([m5C])[sp].d(G)[sp].d(A)[sp].d([m5C])[sp].[moe](T)p.[moe]([m5C])[sp].[moe]([m5C])}$$$$ (last 3' nucleoside missing),3
20,RNA1{[moe]([m5C])[sp].[moe]([m5C])p.[moe]([m5C])p.[moe](T)p.[moe](A)p.[moe](G)p.d([m5C])[sp].d(G)[sp].d([m5C])[sp].d(G)[sp].d([m5C])[sp].d(G)[sp].d(A)[sp].d([m5C])[sp].d(T)[sp].d([m5C])[sp].[moe]([m5C])p.[moe](T)[sp].[moe](G)}$$$$ (last 3' nucleoside missing),1.25
21,RNA1{[moe]([m5C])[sp].[moe]([m5C])p.[moe]([m5C])p.[moe](T)p.d(A)[sp].d(G)[sp].d([m5C])[sp].d(G)[sp].d([m5C])[sp].d(G)[sp].d([m5C])[sp].d(G)[sp].d(A)[sp].d([m5C])[sp].[moe](T)p.[moe]([m5C])p.[moe]([m5C])p.[moe](T)[sp].[moe](G)}$$$$ (last 3' nucleoside missing),1.75
22,RNA1{[moe]([m5C])[sp].[moe]([m5C])p.[moe]([m5C])p.[moe]([m5C])[sp].d(T)[sp].d(A)[sp].d(G)[sp].d([m5C])[sp].d(G)[sp].d([m5C])[sp].d(G)[sp].d([m5C])[sp].[moe](G)p.[moe](A)p.[moe]([m5C])p.[moe](T)[sp].[moe]([m5C])}$$$$ (last 3' nucleoside missing),1
23,RNA1{[moe]([m5C])[sp].[moe]([m5C])p.[moe]([m5C])p.[moe]([m5C])p.[moe](T)p.[moe](A)[sp].d(G)[sp].d([m5C])[sp].d(G)[sp].d([m5C])[sp].d(G)[sp].d([m5C])[sp].d(G)[sp].d(A)[sp].[moe]([m5C])p.[moe](T)[sp].[moe]([m5C])}$$$$ (last 3' nucleoside missing),2
24,RNA1{[moe]([m5C])[sp].[moe]([m5C])p.[moe]([m5C])p.[moe]([m5C])p.[moe](T)p.[moe](A)p.d(G)[sp].d([m5C])[sp].d(G)[sp].d([m5C])[sp].d(G)[sp].d([m5C])[sp].d(G)[sp].d(A)[sp].d([m5C])[sp].d(T)[sp].[moe]([m5C])p.[moe]([m5C])[sp].[moe](T)}$$$$ (last 3' nucleoside missing),6
25,RNA1{[moe]([m5C])[sp].[moe]([m5C])p.[moe]([m5C])p.[moe]([m5C])p.d(T)[sp].d(A)[sp].d(G)[sp].d([m5C])[sp].d(G)[sp].d([m5C])[sp].d(G)[sp].d([m5C])[sp].d(G)[sp].d(A)[sp].[moe]([m5C])p.[moe](T)p.[moe]([m5C])p.[moe]([m5C])[sp].[moe](T)}$$$$ (last 3' nucleoside missing),3.75
